From patent publication US20090042820A1, “Tubulin Binding Anti Cancer Agents And Prodrugs Thereof” (Threshold Pharmaceuticals, Inc., priority 2004, published 2009)
Like-named read-outs stand apart in the source and are kept apart here.

System: H460 cells
Assay: Alamar Blue antiproliferation assay, H460 cell line
Assay type: cell-based, human
Protocol: To determine the effect of the compounds of the present invention on cell proliferation, the antiproliferative activity of these compounds was tested in a multi-well Alamar Blue based assay (at 2 h and 3 days). Cell growth in the presence and absence of the test compound as tabulated in Table 1 was compared, as measured by a fluorescence plate reader at excitation 550 nm and emission 590 nm (see Biosource International Inc., Tech Application Notes, Use of Alamar Blue in the measurement of Cell Viability and Toxicity, Determining IC50). H460 cells (ATCC HTB-177 ([…]), 4,000 cells/well/200 μl) and LNCap cells (ATCC CRL-1740, 6,000 cells/well/200 μl) were seeded in a 96 well plate in RPMI medium (Invitrogen Corporation, Carlsbad, Calif.). After 24 hours, these plates were divided into 3 groups—Control group, 2 h treatment group and 3 day treatment group.
In the 2 h treatment group, after 2 h the cells were rinsed to remove the test compound and incubated for 3 days, followed by staining with AlamarBlue. The cells in the 3-day treatment group were incubated for 3 days, followed by staining with AlamarBlue. In the Control group, AlamarBlue was added to the plate at (i) day 0 and (ii) day 3 and measured to establish the control reading. In all the groups, the capacity of the cells to proliferate was measured 6 hours after addition of AlamarBlue by a fluorescence plate reader at excitation 550 nm and emission 590 nm.

[1] = Homo sapiens, NCI-H460, 2 h treatment, then 3 days incubation, read-out: GI50 (nM) 2 Hour
[2] = Homo sapiens, NCI-H460, 72 h, 3 day treatment, read-out: GI50 (nM) 3 Days
[3] = Homo sapiens, NCI-H460, 2 h treatment, then 3 days incubation, read-out: GI90 (nM) 2 Hour
[4] = Homo sapiens, NCI-H460, 72 h, 3 day treatment, read-out: GI90 (nM) 3 Day

SMILES: COc1cc(C(=O)c2n[nH]c3c(C#CCNC(=O)C(F)(F)F)c(OC)ccc23)cc(OC)c1OC [Compound 52]
- GI50 [1]: > 1000 nM
- GI50 [2]: 100 nM

SMILES: C#Cc1c(OC)ccc2c(C(=O)c3cc(OC)c(OC)c(OC)c3)nn(C(=O)OCc3ccc([N+](=O)[O-])o3)c12 [Compound 75]
- GI50 [2]: > 1000 nM

SMILES: COc1ccc2c(C(=O)c3cc(OC)c(OC)c(OC)c3)n(Cc3ccccc3)nc2c1 [Compound 17]
- GI50 [1]: > 1000 nM
- IC90 [3]: > 1000 nM
- GI50 [2]: > 1000 nM
- IC90 [4]: > 1000 nM

SMILES: COc1cc(C(=O)c2n[nH]c3c(C(=O)O)c(OC)ccc23)cc(OC)c1OC [Compound 59]
- GI50 [1]: > 1000 nM
- GI50 [2]: 794 nM

SMILES: COc1ccc2c(C(=O)c3cc(OC)c(OC)c(OC)c3)nn(S(=O)(=O)Cc3ccc([N+](=O)[O-])cc3)c2c1 [Compound 33]
- GI50 [1]: > 10000 nM
- GI50 [2]: 1000 nM

SMILES: COc1ccc2c(/C(=N/NC(C)=O)c3cc(OC)c(OC)c(OC)c3)n[nH]c2c1 [Compound 44]
- GI50 [1]: > 5000 nM
- IC90 [3]: > 5000 nM
- GI50 [2]: 1580 nM
- IC90 [4]: > 5000 nM

SMILES: COc1ccc2c(C(=O)c3cc(OC)c(OC)c(OC)c3)n[nH]c2c1 [Compound 9]
- GI50 [1]: > 1000 nM
- IC90 [3]: > 1000 nM
- GI50 [2]: 100 nM
- IC90 [4]: 316 nM

SMILES: COc1ccc2c(/C(=N/O)c3cc(OC)c(OC)c(OC)c3)n[nH]c2c1 [Compound 11]
- GI50 [1]: > 1000 nM
- IC90 [3]: > 1000 nM
- GI50 [2]: 631 nM
- IC90 [4]: > 1000 nM

SMILES: COc1ccc2c(C(=O)c3cc(OC)c(OC)c(OC)c3)n(C)nc2c1 [Compound 13]
- GI50 [1]: > 1000 nM
- IC90 [3]: > 1000 nM
- GI50 [2]: > 1000 nM
- IC90 [4]: > 1000 nM

SMILES: COc1ccc2c(c1)N=N/C2=C/c1cc(OC)c(OC)c(OC)c1 [Compound 19]
- GI50 [1]: > 10000 nM
- IC90 [3]: > 1000 nM
- GI50 [2]: > 1000 nM
- IC90 [4]: > 1000 nM

SMILES: C#Cc1c(OC)ccc2c(C(=O)c3cc(OC)c(OC)c(OC)c3)nn([C@@H]3OC(CO)[C@@H](O)[C@H](O)C3O)c12 (some centres unmarked) [Compound 80]
- GI50 [2]: > 1000 nM

SMILES: COc1cc(C(=O)c2n[nH]c3c(C#CC=O)c(OC)ccc23)cc(OC)c1OC [Compound 76]
- GI50 [2]: 79.4 nM

SMILES: COc1ccc2c(C(=O)c3cc(OC)c(OC)c(OC)c3)nn(CO)c2c1 [Compound 56]
- GI50 [1]: > 10000 nM
- GI50 [2]: 50.1 nM

SMILES: COc1ccc2c(/C(=N/N)c3cc(OC)c(OC)c(OC)c3)n[nH]c2c1 [Compound 10]
- GI50 [1]: > 1000 nM
- IC90 [3]: > 1000 nM
- GI50 [2]: 398 nM
- IC90 [4]: 1000 nM

SMILES: COc1cc(C(=O)c2n[nH]c3c(C#CC(C)(C)O)c(OC)ccc23)cc(OC)c1OC [Compound 36]
- GI50 [1]: > 10000 nM
- GI50 [2]: 63 nM

SMILES: C#Cc1c(OC)ccc2c(C(=O)c3cc(OC)c(OC)c(OC)c3)nn(CC(=O)O)c12 [Compound 74]
- GI50 [2]: > 1000 nM

SMILES: COc1ccc2c(C(=O)c3cc(OC)c(OC)c(OC)c3)nn(S(=O)(=O)c3cccc4ccccc34)c2c1 [Compound 25]
- GI50 [1]: > 10000 nM
- GI50 [2]: 630 nM

SMILES: COc1cc(C(=O)c2n[nH]c3c(Cl)c(OC)ccc23)cc(OC)c1OC [Compound 21]
- GI50 [1]: > 10000 nM
- GI50 [2]: 40 nM

SMILES: COc1ccc2c(C(=O)c3cc(OC)c(OC)c(OC)c3)nn(S(=O)(=O)c3ccc(N)cc3)c2c1 [Compound 24]
- GI50 [1]: 10000 nM
- GI50 [2]: 501 nM

SMILES: COc1cc2[nH]nc(C(=O)c3cc(OC)c(OC)c(OC)c3)c2cc1OC [Compound 77]
- GI50 [2]: > 1000 nM

SMILES: COc1cc(C(=O)c2n[nH]c3c(C#Cc4cccc(O)c4)c(OC)ccc23)cc(OC)c1OC [Compound 69]
- GI50 [2]: 1000 nM

SMILES: COc1ccc2c(C(=O)c3cc(OC)c(OC)c(OC)c3Br)nn(S(=O)(=O)c3ccc(C)cc3)c2c1 [Compound 48]
- GI50 [2]: 630 nM

SMILES: COc1cc(C(=O)c2nn(Cc3ncc([N+](=O)[O-])n3C)c3c(Br)c(OC)ccc23)cc(OC)c1OC [Compound 38]
- GI50 [1]: > 10000 nM
- GI50 [2]: 631 nM

SMILES: COc1ccc2c(C(=O)c3cc(OC)c(OC)c(OC)c3N)n[nH]c2c1 [Compound 45]
- GI50 [2]: 158 nM

SMILES: COc1ccc2c(C(=O)c3cc(OC)c(OC)c(OC)c3)nn(P(=O)(OCc3ccccc3)OCc3ccccc3)c2c1 [Compound 27]
- GI50 [1]: > 10000 nM
- GI50 [2]: 251 nM

SMILES: COc1cc(C(=O)c2n[nH]c3c(CCC(C)(C)O)c(OC)ccc23)cc(OC)c1OC [Compound 65]
- GI50 [1]: > 1000 nM
- GI50 [2]: > 1000 nM

SMILES: COc1cc(C(=O)c2n[nH]c3c(C#CCN)c(OC)ccc23)cc(OC)c1OC [Compound 53]
- GI50 [1]: 630 nM
- GI50 [2]: 158 nM

SMILES: COc1ccc2c(C(=O)c3cc(OC)c(OC)c(OC)c3)n(CO)nc2c1 [Compound 81]
- GI50 [2]: > 1000 nM

SMILES: COc1ccc2c(C(=O)c3cc(OC)c(OC)c(OC)c3)nn(C)c2c1 [Compound 12]
- GI50 [1]: > 1000 nM
- IC90 [3]: > 1000 nM
- GI50 [2]: > 1000 nM
- IC90 [4]: > 1000 nM

SMILES: COc1cc(C(=O)c2n[nH]c3ccc(F)cc23)cc(OC)c1OC [Compound 43]
- GI50 [1]: > 10000 nM
- IC90 [3]: > 1000 nM
- GI50 [2]: > 10000 nM
- IC90 [4]: > 1000 nM

SMILES: COc1ccc2c(C(=O)c3cc(OC)c(OC)c(OC)c3)nn(P(=O)(OC)OC)c2c1 [Compound 49]
- GI50 [2]: 15.8 nM

SMILES: COc1ccc2c(C(=O)c3cc(OC)c(OC)c(OC)c3)nn(CCO)c2c1 [Compound 64]
- GI50 [1]: > 1000 nM
- GI50 [2]: 630 nM

SMILES: COc1ccc2c3n(nc2c1)Cc1c(cc(OC)c(OC)c1OC)C3=O [Compound 32]
- GI50 [1]: > 10000 nM
- GI50 [2]: > 10000 nM

SMILES: COc1cc(C(=O)c2n[nH]c3c(S(=O)(=O)c4ccc(OCc5ccccc5)cc4)c(OC)ccc23)cc(OC)c1OC [Compound 31]
- GI50 [1]: > 10000 nM
- GI50 [2]: > 10000 nM

SMILES: COc1ccc2c(C(=O)c3cc(OC)c(OC)c(OC)c3)nn(S(=O)(=O)c3ccc([N+](=O)[O-])cc3)c2c1 [Compound 23]
- GI50 [1]: 630 nM
- GI50 [2]: 100 nM

SMILES: COc1ccc2c(C(=O)c3cc(OC)c(OC)c(OC)c3)nn(S(=O)(=O)c3ccc(C)cc3)c2c1 [Compound 47]
- GI50 [2]: 25 nM

SMILES: COc1cc(C(=O)c2n[nH]c3c(C#C[C@@H](C)O)c(OC)ccc23)cc(OC)c1OC [Compound 71]
- GI50 (3 day treatment, read-out: GI50 (nM) 3 Days): 12.5 nM

SMILES: COc1ccc2c(C(=O)c3cc(OC)c(OC)c(OC)c3)nn(S(=O)(=O)c3ccc(O)cc3)c2c1 [Compound 29]
- GI50 [1]: > 10000 nM
- GI50 [2]: 630 nM

SMILES: COc1cc(C(=O)c2n[nH]c3c(I)c(OC)ccc23)cc(OC)c1OC [Compound 22]
- GI50 [1]: > 10000 nM
- GI50 [2]: 40 nM

SMILES: COc1ccc2c(C(=O)c3cc(OC)c(OC)c(OC)c3)nn(CC(N)=O)c2c1 [Compound 63]
- GI50 [1]: > 1000 nM
- GI50 [2]: 630 nM

SMILES: C#Cc1c(OC)ccc2c(C(=O)c3cc(OC)c(OC)c(OC)c3)nn(CC(N)=O)c12 [Compound 73]
- GI50 [2]: 630 nM

SMILES: COc1ccc2c(C(=O)c3cc(OC)c(OC)c(OC)c3)nn(S(=O)(=O)c3ccc4ccccc4c3)c2c1 [Compound 26]
- GI50 [1]: > 10000 nM
- GI50 [2]: 630 nM

SMILES: CCC(=O)n1nc(C(=O)c2cc(OC)c(OC)c(OC)c2)c2ccc(OC)cc21 [Compound 50]
- GI50 [1]: > 10000 nM
- GI50 [2]: 20 nM

SMILES: COc1ccc2c(C(=O)c3cc(OC)c(OC)c(OC)c3)nn(CC(=O)O)c2c1 [Compound 62]
- GI50 [1]: > 1000 nM
- GI50 [2]: 630 nM

SMILES: COc1cc(C(=O)c2n[nH]c3c(CCCCO)c(OC)ccc23)cc(OC)c1OC [Compound 61]
- GI50 [1]: > 1000 nM
- GI50 [2]: > 1000 nM

SMILES: COc1ccc2c(C(=O)c3cc(OC)c(OC)c(OC)c3)nn(C(=O)c3ccccc3)c2c1 [Compound 20]
- GI50 [1]: 630 nM
- GI50 [2]: 100 nM

SMILES: COc1ccc2[nH]nc(C(=O)c3cc(OC)c(OC)c(OC)c3)c2c1 [Compound 42]
- GI50 [1]: > 1000 nM
- IC90 [3]: > 1000 nM
- GI50 [2]: > 1000 nM
- IC90 [4]: > 1000 nM
